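Dose response: 5 concentrations. Exposure: 48 h. Format: 96-well plates. Endpoint: linear interpolation; highest concentration if not reached. At the GI50, growth is halved. TGI: total growth inhibition.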
Tests used:
Assay in all cases: inhibition of tumour cell growth, NCI panel, 48 h
786-0 renal = system: 786-0 renal
A498 renal = system: A498 renal
A549 NSCLC = system: A549 NSCLC
ACHN renal = system: ACHN renal
BT-549 breast = system: BT-549 breast
CAKI-1 renal = system: CAKI-1 renal
CCRF-CEM leukemia = system: CCRF-CEM leukemia
COLO 205 colon = system: COLO 205 colon
DU-145 prostate = system: DU-145 prostate
EKVX NSCLC = system: EKVX NSCLC
HCC-2998 colon = system: HCC-2998 colon
HCT-116 colon = system: HCT-116 colon
HCT-15 colon = system: HCT-15 colon
HL-60(TB) leukemia = system: HL-60(TB) leukemia
HOP-62 NSCLC = system: HOP-62 NSCLC
HOP-92 NSCLC = system: HOP-92 NSCLC
HS 578T breast = system: HS 578T breast
HT29 colon = system: HT29 colon
IGROV1 ovarian = system: IGROV1 ovarian
K-562 leukemia = system: K-562 leukemia
KM12 colon = system: KM12 colon
LOX IMVI melanoma = system: LOX IMVI melanoma
MALME-3M melanoma = system: MALME-3M melanoma
MCF7 breast = system: MCF7 breast
MDA-MB-231 breast = system: MDA-MB-231 breast
MOLT-4 leukemia = system: MOLT-4 leukemia
NCI-H226 lung = system: NCI-H226 lung
NCI-H23 lung = system: NCI-H23 lung
NCI-H460 lung = system: NCI-H460 lung
NCI-H522 lung = system: NCI-H522 lung
NCI/ADR-RES ovarian = system: NCI/ADR-RES ovarian
OVCAR-3 ovarian = system: OVCAR-3 ovarian
OVCAR-4 ovarian = system: OVCAR-4 ovarian
OVCAR-5 ovarian = system: OVCAR-5 ovarian
OVCAR-8 ovarian = system: OVCAR-8 ovarian
PC-3 prostate = system: PC-3 prostate
RPMI-8226 leukemia = system: RPMI-8226 leukemia
SF-268 CNS = system: SF-268 CNS
SF-295 CNS = system: SF-295 CNS
SF-539 CNS = system: SF-539 CNS
SK-MEL-2 melanoma = system: SK-MEL-2 melanoma
SK-MEL-28 melanoma = system: SK-MEL-28 melanoma
SK-MEL-5 melanoma = system: SK-MEL-5 melanoma
SK-OV-3 ovarian = system: SK-OV-3 ovarian
SN12C renal = system: SN12C renal
SNB-19 CNS = system: SNB-19 CNS
SR leukemia = system: SR leukemia
SW-620 colon = system: SW-620 colon
T-47D breast = system: T-47D breast
TK-10 renal = system: TK-10 renal
U251 CNS = system: U251 CNS
UACC-257 melanoma = system: UACC-257 melanoma
UACC-62 melanoma = system: UACC-62 melanoma
UO-31 renal = system: UO-31 renal
M14 melanoma = system: M14 melanoma
RXF 393 renal = system: RXF 393 renal
SNB-75 CNS = system: SNB-75 CNS

Molecule COc1cc(/C(C#N)=C/c2nc3c(N4CCOCC4)nc(Cl)nc3n2C)cc(OC)c1OC has a GI50 (786-0 renal) of under 0.01 µM, a TGI (786-0 renal) of 3.12 µM and a GI50 (A498 renal) of under 0.01 µM. For the same molecule, the TGI (A498 renal) was under 0.01 µM, the GI50 (A549 NSCLC) was under 0.01 µM and the TGI (A549 NSCLC) was over 45.5 µM. The GI50 (ACHN renal) was under 0.01 µM, the TGI (ACHN renal) was 4.99 µM and the GI50 (BT-549 breast) was under 0.01 µM. The TGI (BT-549 breast) was 0.481 µM, the GI50 (CAKI-1 renal) was under 0.01 µM and the TGI (CAKI-1 renal) was 2.87 µM. The GI50 (CCRF-CEM leukemia) was under 0.01 µM, the TGI (CCRF-CEM leukemia) was 0.668 µM and the GI50 (COLO 205 colon) was 0.0124 µM. It also gave a TGI (COLO 205 colon) of 0.0335 µM, a GI50 (DU-145 prostate) of under 0.01 µM and a TGI (DU-145 prostate) of over 94.3 µM. It also gave a TGI (EKVX NSCLC) of over 69.9 µM, a GI50 (HCC-2998 colon) of under 0.0157 µM and a TGI (HCC-2998 colon) of 2.19 µM. For the same molecule, the GI50 (HCT-116 colon) was under 0.01 µM, the TGI (HCT-116 colon) was 0.464 µM and the GI50 (HCT-15 colon) was under 0.01 µM. It also gave a TGI (HCT-15 colon) of 6.94 µM, a GI50 (HL-60(TB) leukemia) of under 0.01 µM and a TGI (HL-60(TB) leukemia) of under 0.01 µM. The GI50 (HOP-62 NSCLC) was under 0.01 µM, the TGI (HOP-62 NSCLC) was 12.9 µM and the GI50 (HOP-92 NSCLC) was 0.158 µM. The TGI (HOP-92 NSCLC) was 4.38 µM, the GI50 (HS 578T breast) was under 0.01 µM and the TGI (HS 578T breast) was over 23.7 µM. It also gave a GI50 (HT29 colon) of under 0.01 µM, a TGI (HT29 colon) of 3.42 µM and a GI50 (IGROV1 ovarian) of under 0.01 µM. For the same molecule, the TGI (IGROV1 ovarian) was 16.6 µM, the GI50 (K-562 leukemia) was under 0.01 µM and the TGI (K-562 leukemia) was over 38.4 µM. It also gave a GI50 (KM12 colon) of under 0.01 µM, a TGI (KM12 colon) of 4.36 µM and a GI50 (LOX IMVI melanoma) of under 0.01 µM. For the same molecule, the TGI (LOX IMVI melanoma) was 4.17 µM, the GI50 (MALME-3M melanoma) was under 0.01 µM and the TGI (MALME-3M melanoma) was 20.8 µM. The GI50 (MCF7 breast) was under 0.0115 µM, the TGI (MCF7 breast) was over 32.5 µM and the GI50 (MDA-MB-231 breast) was under 0.01 µM. It also gave a TGI (MDA-MB-231 breast) of 35.9 µM, a GI50 (MOLT-4 leukemia) of under 0.0184 µM and a TGI (MOLT-4 leukemia) of 27.5 µM. It also gave a TGI (NCI-H226 lung) of 3.03 µM, a GI50 (NCI-H23 lung) of under 0.01 µM and a TGI (NCI-H23 lung) of over 35.4 µM. It also gave a GI50 (NCI-H460 lung) of under 0.01 µM, a TGI (NCI-H460 lung) of 5.37 µM and a GI50 (NCI-H522 lung) of under 0.01 µM. For the same molecule, the TGI (NCI-H522 lung) was 2.88 µM, the GI50 (NCI/ADR-RES ovarian) was under 0.01 µM and the TGI (NCI/ADR-RES ovarian) was 5.56 µM. The GI50 (OVCAR-3 ovarian) was under 0.01 µM, the TGI (OVCAR-3 ovarian) was under 0.01 µM and the GI50 (OVCAR-4 ovarian) was under 0.01 µM. For the same molecule, the TGI (OVCAR-4 ovarian) was 41.1 µM, the GI50 (OVCAR-5 ovarian) was under 0.01 µM and the TGI (OVCAR-5 ovarian) was over 100 µM. For the same molecule, the GI50 (OVCAR-8 ovarian) was under 0.01 µM, the TGI (OVCAR-8 ovarian) was 31.3 µM and the GI50 (PC-3 prostate) was under 0.01 µM. It also gave a TGI (PC-3 prostate) of 7.62 µM, a GI50 (RPMI-8226 leukemia) of under 0.01 µM and a TGI (RPMI-8226 leukemia) of 1.88 µM. It also gave a GI50 (SF-268 CNS) of under 0.0118 µM, a TGI (SF-268 CNS) of over 26.8 µM and a GI50 (SF-295 CNS) of under 0.01 µM. The TGI (SF-295 CNS) was 1.49 µM, the GI50 (SF-539 CNS) was under 0.01 µM and the TGI (SF-539 CNS) was under 0.01 µM. It also gave a GI50 (SK-MEL-2 melanoma) of under 0.0144 µM, a TGI (SK-MEL-2 melanoma) of 62.7 µM and a GI50 (SK-MEL-28 melanoma) of 1.03 µM. The TGI (SK-MEL-28 melanoma) was over 64.8 µM, the GI50 (SK-MEL-5 melanoma) was under 0.01 µM and the TGI (SK-MEL-5 melanoma) was 0.0268 µM. For the same molecule, the GI50 (SK-OV-3 ovarian) was under 0.01 µM, the TGI (SK-OV-3 ovarian) was 7.27 µM and the GI50 (SN12C renal) was under 0.01 µM. It also gave a TGI (SN12C renal) of 22.1 µM, a GI50 (SNB-19 CNS) of under 0.01 µM and a TGI (SNB-19 CNS) of over 100 µM. For the same molecule, the GI50 (SR leukemia) was under 0.01 µM, the GI50 (SW-620 colon) was under 0.01 µM and the TGI (SW-620 colon) was over 100 µM. The TGI (T-47D breast) was 5.63 µM, the GI50 (TK-10 renal) was 2.91 µM and the TGI (TK-10 renal) was 17.8 µM. It also gave a GI50 (U251 CNS) of under 0.01 µM, a TGI (U251 CNS) of over 32.2 µM and a GI50 (UACC-257 melanoma) of 2.45 µM. It also gave a TGI (UACC-257 melanoma) of over 55.2 µM, a GI50 (UACC-62 melanoma) of under 0.01 µM and a TGI (UACC-62 melanoma) of 15.5 µM. The GI50 (UO-31 renal) was under 0.01 µM and the TGI (UO-31 renal) was 5.17 µM.

O=C(Cc1ccc(O)c(O)c1)NCc1c[nH]c2ccccc12 showed a TGI (786-0 renal) of over 100 µM, a TGI (A498 renal) of over 100 µM and a TGI (A549 NSCLC) of over 100 µM. For the same molecule, the TGI (BT-549 breast) was over 100 µM, the TGI (CAKI-1 renal) was over 100 µM and the TGI (CCRF-CEM leukemia) was 47.8 µM. The TGI (COLO 205 colon) was over 100 µM, the TGI (DU-145 prostate) was over 100 µM and the TGI (EKVX NSCLC) was over 100 µM. For the same molecule, the TGI (HCC-2998 colon) was over 100 µM, the TGI (HCT-116 colon) was over 100 µM and the TGI (HCT-15 colon) was over 100 µM. For the same molecule, the TGI (HL-60(TB) leukemia) was 85.7 µM, the TGI (HOP-62 NSCLC) was over 100 µM and the TGI (HOP-92 NSCLC) was over 100 µM. It also gave a TGI (HS 578T breast) of over 100 µM, a TGI (HT29 colon) of over 100 µM and a TGI (K-562 leukemia) of over 100 µM. It also gave a TGI (KM12 colon) of over 100 µM, a TGI (M14 melanoma) of over 100 µM and a TGI (MALME-3M melanoma) of 76.5 µM. The TGI (MCF7 breast) was over 100 µM, the TGI (MOLT-4 leukemia) was over 100 µM and the TGI (NCI-H23 lung) was over 100 µM. For the same molecule, the TGI (NCI-H460 lung) was over 100 µM, the TGI (NCI-H522 lung) was over 100 µM and the TGI (NCI/ADR-RES ovarian) was over 100 µM. For the same molecule, the TGI (OVCAR-3 ovarian) was over 100 µM, the TGI (OVCAR-4 ovarian) was over 100 µM and the TGI (OVCAR-5 ovarian) was over 100 µM. For the same molecule, the TGI (OVCAR-8 ovarian) was over 100 µM, the TGI (PC-3 prostate) was over 100 µM and the TGI (RPMI-8226 leukemia) was over 100 µM. It also gave a TGI (RXF 393 renal) of over 100 µM, a TGI (SF-268 CNS) of over 100 µM and a TGI (SF-295 CNS) of over 100 µM. It also gave a TGI (SF-539 CNS) of over 100 µM, a TGI (SK-MEL-2 melanoma) of over 100 µM and a TGI (SK-MEL-28 melanoma) of over 100 µM. For the same molecule, the TGI (SK-MEL-5 melanoma) was over 100 µM, the TGI (SK-OV-3 ovarian) was over 100 µM and the TGI (SNB-19 CNS) was over 100 µM. For the same molecule, the TGI (SNB-75 CNS) was over 100 µM, the TGI (SW-620 colon) was over 100 µM and the TGI (T-47D breast) was over 100 µM. For the same molecule, the TGI (TK-10 renal) was 69.5 µM, the TGI (UACC-257 melanoma) was over 100 µM and the TGI (UO-31 renal) was over 100 µM.

Reference: PubChem BioAssay (NCI)
